In patent US8754079B2, “Cycloalkyl containing thienopyrimidines for pharmaceutical compositions” (Boehringer Ingelheim International GmbH, priority 2010, dated 2014):

Molecular target: T1, MNK2 (Homo sapiens, UniProt Q9HBH9)
T1 construct: the open reading frames of human Mnk1 and Mnk2a were amplified from cDNA; made in house; host or cells: E. coli BL21
Test: Mnk2a in vitro kinase assay (indirect fluorescence polarization)
Format: biochemical
Settings: pre-activated GST-Mnk2a 2.5 nM, 20 μM ATP, 30 μM substrate peptide
Experimental: Inhibitory potency of compounds against Mnk1, Mnk2a and other kinases was assessed with assays based on a format known to those skilled in the art as the indirect (competitive) fluorescence polarization. The assay detection system comprises a small fluorophore-labeled phospho-peptide (termed ligand) bound to a phospho-specific antibody. The product generated by the kinase reaction competes with the ligand for antibody binding. Based on the larger molecular volume of the bound ligand, which results in a lower rotation rate in solution, its emitted light has a higher degree of polarization than the one from the free ligand.
Example 2a. Mnk1 and Mnk2a in vitro kinase assay
As a source of enzyme, human Mnk1 and human Mnk2a were expressed as GST fusion proteins in E. coli, purified to >80% homogeneity by glutathione affinity chromatography and activated in vitro with pre-activated ERK2. In brief, the open reading frames of human Mnk1 and Mnk2a were amplified from cDNA using the forward/reverse primer pairs
(utilized restriction sites underlined), respectively, and cloned into the BamHI and SalI sites of the vector pGEX-4T1 (Amersham, Sweden, cat. no. 27-4580-01). These constructs allow prokaryotic expression of Mnk1 or Mnk2a as fusion protein with a N-terminal glutathione S-transferase (GST) tag, referred to as GST-Mnk1 or GSTMnk2a. The following expression and purification procedure was identical for GSTMnk1 and GST-Mnk2a, referring in general to GST-Mnk, when not distinguishing between the two isoforms. Expression of GST-Mnk was in E. coli BL21 (Merck Biosciences, Germany, cat. no. 69449). Cells were grown in LB-Bouillon (Merck, Germany, cat. no. 1.10285) supplemented with 100 μg/ml ampicillin (Sigma, Germany, cat. no. A9518) at 37° C. When the culture had reached a density corresponding to an A600 of 0.8, an equal volume of ice cold LB/ampicillin was added, the culture transferred to 25° C. and induced for 4 h with 1 mM isopropyl thiogalactoside (IPTG, Roth, Germany, cat. no. 2316.4). Cells harvested by centrifugation were resuspended in 10 ml lysis buffer (50 mM tris(hydroxymethyl)aminomethane hydrochloride (Tris/HCl, Sigma, Germany, cat. no. T5941) pH 7.5, 300 mM sodium chloride (NaCl, Sigma, Germany, cat. no. S7653), 5% (w/v) glycerol (Sigma, Germany, cat. no. G5516), 3 mM DTT dithiotreitol (DTT, Sigma, Germany, cat. no. D9779)) per gram wet weight cell pellet. Lysates were prepared by disruption of cells with a sonifier and subsequent clearing by centrifugation at 38000 g for 45 min at 4° C.
The lysate was applied to a GSTPrep FF 16/10 column (Amersham, Sweden, cat. no. 17-5234-01) equilibrated with lysis buffer. Removal of unbound material was with 3 column volumes (CV) lysis buffer. Elution was with 2 CV of elution buffer (50 mM Tris/HCl pH 7.5, 300 mM NaCl, 5% (w/v) glycerol, 20 mM glutathione (Sigma, Germany, cat. no. G4251)). Peak fractions were pooled and the protein transferred into storage buffer (50 mM Tris/HCl pH 7.5, 200 mM NaCl, 0.1 mM ethylene glycolbis(2-aminoethylether)-N,N,N′,N′-tetraacetic acid (EGTA, Aldrich, Germany, cat. no. 23, 453-2), 1 mM DTT, 10% (w/v) glycerol, 0.5 M sucrose (Sigma, Germany, cat. no. S0389) by gel filtration on a PD10 desalting column (Amersham, Sweden, cat. no. 17-0851-01). Aliquots were shock frozen in liquid nitrogen and stored at −80° C.
Activation of Mnk1 and Mnk2a was at a concentration of 2.5 μM of either purified GST-Mnk1 or GST-Mnk2a by incubation with 150 nM pre-activated NHis-ERK2 (see ERK2 assay for preparation) and 50 μM adenosine triphosphate (ATP, Sigma, cat. no. A2699) in a buffer comprising 20 mM N-(2-hydroxyethyl)piperazine-N′-(2-ethanesulfonic acid) (HEPES, Fluka, Germany, cat. no 54459)/potassium hydroxide (KOH, Roth, Germany, cat. no 6751.1) pH 7.4, 10 mM magnesium chloride (MgCl2, Sigma, Germany, cat. no. M2670), 0.25 mM DTT, 0.05% (w/v) polyoxyethylene 20 stearylether (Brij 78, Sigma, Germany, cat. no. P4019) (HMDB buffer) for 45 min at 30° C. […]

T1 sequence (Q9HBH9 whole entry): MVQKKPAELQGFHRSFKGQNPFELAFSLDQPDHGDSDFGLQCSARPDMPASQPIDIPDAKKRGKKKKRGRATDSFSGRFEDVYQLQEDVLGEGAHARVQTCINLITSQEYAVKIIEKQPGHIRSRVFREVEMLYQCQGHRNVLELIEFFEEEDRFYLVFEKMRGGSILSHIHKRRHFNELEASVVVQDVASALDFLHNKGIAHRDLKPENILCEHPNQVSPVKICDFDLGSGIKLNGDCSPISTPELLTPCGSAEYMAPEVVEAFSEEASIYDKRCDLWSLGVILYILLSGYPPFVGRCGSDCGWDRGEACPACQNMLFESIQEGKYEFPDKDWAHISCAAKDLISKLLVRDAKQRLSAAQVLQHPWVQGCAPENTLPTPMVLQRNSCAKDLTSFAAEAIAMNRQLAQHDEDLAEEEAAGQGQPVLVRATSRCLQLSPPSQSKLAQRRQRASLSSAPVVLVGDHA

IC50 [µM] | SMILES
0.019 | CO[C@H]1CCC[C@@H](Oc2ncccc2Nc2ncnc3sc(C(=O)NCc4cn(C)cn4)c(C)c23)C1 (racemic) [Example 128]
0.024 | CCNC(=O)c1sc2ncnc(Nc3cccnc3O[C@@H]3CCC[C@H](OC)C3)c2c1C (racemic) [Example 130]
0.018 | CO[C@@H]1CCC[C@@H](Oc2ncccc2Nc2ncnc3sc(C(N)=O)c(C)c23)C1 (racemic) [Example 131, Racemic 4-[2-((trans)-3-Methoxy-cyclohexyloxy)-pyridin-3-ylamino]-5-methyl-thieno[2,3-d]pyrimidine-6-carboxylic acid amide]
0.053 | CO[C@@H]1CCC[C@@H](Oc2ncccc2Nc2ncnc3sc(C(=O)NCC#CCN)c(C)c23)C1 (racemic) [Example 133]
0.086 | CO[C@@H]1CCC[C@@H](Oc2ncccc2Nc2ncnc3sc(C(=O)NCCCCO)c(C)c23)C1 (racemic) [Example 134]
0.065 | CO[C@@H]1CCC[C@@H](Oc2ncccc2Nc2ncnc3sc(C(=O)NCc4cnco4)c(C)c23)C1 (racemic) [Example 135]
0.044 | CO[C@@H]1CCC[C@@H](Oc2ncccc2Nc2ncnc3sc(C(=O)NCC#N)c(C)c23)C1 (racemic) [Example 136]
0.105 | CNC(=O)CNC(=O)c1sc2ncnc(Nc3cccnc3O[C@@H]3CCC[C@@H](OC)C3)c2c1C (racemic) [Example 137]
0.048 | CO[C@@H]1CCC[C@@H](Oc2ncccc2Nc2ncnc3sc(C(=O)NCC#CCN(C)C)c(C)c23)C1 (racemic) [Example 138]
0.084 | CO[C@@H]1CCC[C@@H](Oc2ncccc2Nc2ncnc3sc(C(=O)NCCCN4CCOCC4)c(C)c23)C1 (racemic) [Example 139]
0.125 | CO[C@@H]1CCC[C@@H](Oc2ncccc2Nc2ncnc3sc(C(=O)N[C@H]4CC[C@H](O)CC4)c(C)c23)C1 (racemic) [Example 142]
0.089 | CO[C@@H]1CCC[C@@H](Oc2ncccc2Nc2ncnc3sc(C(=O)NC4CCN(C)CC4)c(C)c23)C1 (racemic) [Example 144]
0.068 | CO[C@@H]1CCC[C@@H](Oc2ncccc2Nc2ncnc3sc(C(=O)NCCN4CCCCC4)c(C)c23)C1 (racemic) [Example 145]
0.083 | CO[C@@H]1CCC[C@@H](Oc2ncccc2Nc2ncnc3sc(C(=O)NCCCO)c(C)c23)C1 (racemic) [Example 147]
0.049 | CO[C@@H]1CCC[C@@H](Oc2ncccc2Nc2ncnc3sc(C(=O)NCCCN4CCCC4)c(C)c23)C1 (racemic) [Example 148]
0.013 | Cc1c(C(N)=O)sc2ncnc(Nc3ccc(F)cc3O[C@@H]3CCC[C@H]4OC(C)(C)O[C@@H]34)c12 (relative stereo) [Example 1]
0.021 | Cc1c(C(N)=O)sc2ncnc(Nc3ccc(F)cc3O[C@@H]3CCC[C@@H](O)[C@H]3O)c12 (relative stereo) [Example 2]
0.028 | CN[C@H]1CCC[C@@H](Oc2cc(F)ccc2Nc2ncnc3sc(C(N)=O)c(C)c23)C1 (relative stereo) [Example 17, 4-(4-Fluoro-2-(cis-3-(N-methylamino)cyclohexyloxy)phenylamino)-5-methylthieno[2,3-d]pyrimidine-6-carboxamide]

IC50 [µM] | SMILES
0.036 | CN[C@H]1CCC[C@H](Oc2cc(F)ccc2Nc2ncnc3sc(C(N)=O)c(C)c23)C1 (relative stereo) [Example 18, 4-(4-Fluoro-2-(trans-3-(N-methylamino)cyclohexyloxy)phenylamino)-5-methylthieno[2,3-d]pyrimidine-6-carboxamide]
0.009 | COC(=O)c1sc2ncnc(Nc3ccc(F)cc3OC3C[C@@H](O)C[C@H](O)C3)c2c1C (relative stereo) [Example 30.1]
0.033 | CO[C@H]1CCC[C@@H](Oc2ncccc2Nc2ncnc3sc(C(=O)NCC4COCCN4)c(C)c23)C1 (relative stereo) [Example 120]
0.044 | CO[C@H]1CCC[C@@H](Oc2ncccc2Nc2ncnc3sc(C(=O)NCC(C)O)c(C)c23)C1 (relative stereo) [Example 125]
0.023 | CO[C@H]1CCC[C@@H](Oc2ncccc2Nc2ncnc3sc(C(=O)NCCCO)c(C)c23)C1 (relative stereo) [Example 126]
0.049 | CO[C@@H]1CCC[C@@H](Oc2ncccc2Nc2ncnc3sc(C(=O)NCC4CNCCO4)c(C)c23)C1 (relative stereo) [Example 140]
0.077 | CO[C@@H]1CCC[C@@H](Oc2ncccc2Nc2ncnc3sc(C(=O)NCCO)c(C)c23)C1 (relative stereo) [Example 143]
0.008 | Cc1c(C(N)=O)sc2ncnc(Nc3ccc(F)cc3OC3C[C@@H](O)[C@H](O)C3)c12 (relative stereo) [Example 211]
0.01 | Cc1c(C(N)=O)sc2ncnc(Nc3ccc(F)cc3O[C@@H]3CC[C@@H](O)[C@H]3O)c12 (relative stereo) [Example 221]
0.041 | Cc1c(C(=O)NCCCN(C)C)sc2ncnc(Nc3ccc(F)cc3O[C@@H]3CC[C@@H](O)[C@H]3O)c12 (relative stereo) [Example 222]
0.018 | Cc1c(C(N)=O)sc2ncnc(Nc3ccc(F)cc3O[C@@H]3CC[C@H](O)[C@@H]3O)c12 (relative stereo) [Example 223]
0.008 | Cc1c(C(N)=O)sc2ncnc(Nc3ccc(F)cc3O[C@@H]3CCC[C@@H]3O)c12 (relative stereo) [Example 224]
0.033 | COC(=O)[C@H](CO)NC(=O)c1sc2ncnc(Nc3ccc(F)cc3O[C@H]3CC[C@H](OC)CC3)c2c1C (relative stereo) [Example 272, 2-({-4-[4-Fluoro-2-(trans-4-methoxy-cyclohexyloxy)-phenylamino]-5-methyl-thieno[2,3-d]pyrimidine-6-carbonyl}-amino)-3-hydroxy-propionic acid methyl ester]
1.29 | COC(=O)c1sc2ncnc(Nc3ccc(F)cc3O[C@@H]3CCCC[C@@H]3O)c2c1C (single isomer, unassigned) [Example 256, 4-[4-fluoro-2-(cis-2-hydroxy-cyclohexyloxy)-phenylamino]-5-methyl-thieno[2,3-d]pyrimidine-6-carboxylic acid methyl ester]
0.141 | COC(=O)c1sc2ncnc(Nc3ccc(F)cc3O[C@H]3CCCC[C@H]3O)c2c1C (single isomer, unassigned) [Example 257, 4-[4-fluoro-2-(cis-2-hydroxy-cyclohexyloxy)-phenylamino]-5-methyl-thieno[2,3-d]pyrimidine-6-carboxylic acid methyl ester]
0.11 | Cc1c(C(=O)O)sc2ncnc(Nc3ccc(F)cc3O[C@@H]3CCCC[C@@H]3O)c12 (single isomer, unassigned) [Example 258, 4-[4-fluoro-2-(cis-2-hydroxy-cyclohexyloxy)-phenylamino]-5-methyl-thieno[2,3-d]pyrimidine-6-carboxylic acid]
0.346 | Cc1c(C(=O)NC2CCN(C)CC2)sc2ncnc(Nc3ccc(F)cc3OC3CCCCC3O)c12 (single isomer, unassigned) [Example 259]
0.255 | Cc1c(C(=O)NCCCN2CCCC2)sc2ncnc(Nc3ccc(F)cc3OC3CCCCC3O)c12 (single isomer, unassigned) [Example 260]
